According to US12208105B2, “Methods for attenuating graft-versus-host disease and opportunistic infections” (priority 2018, dated 2025):
Where two headings read alike, the source gives them in different places.

Experiments:
TNF and IFN-γ = assay: Organ inflammatory cytokines by ELISA after HSCT; conditions: day +14
Procedure: (A, B) B6D2 mice were lethally irradiated on transplant day −1. On day 0 recipients were administered 3×10^6 TCD B6 BM cells +/−4×10^6 B6 Tcons. Donor TCD BM cells, donor Tcons, both cell populations, or neither were incubated ex vivo with cosalane at 15 μg/ml for one hour prior to transplant. Those cells not treated with cosalane were incubated with an equal volume of DMSO vehicle. Mice were then followed for survival and scored for aGVHD. N=2 BM only. N=5 for all other treatment groups. […] (C, D) B6D2 mice were lethally irradiated on transplant day −1. On day 0 recipients were administered 3×10^6 TCD eGFP^− B6 BM cells plus 4×10^6 eGFP^+ B6 Tcons. Donor Tcons were incubated ex vivo with DMSO vehicle or cosalane diluted in normal saline at 15 μg/ml. The cells were then mixed with untreated TCD B6 BM cells and administered immediately to recipient mice by tail vein injection. Recipient mice were subsequently killed on day +7 (C) or day +14 (D). Lymphoid organs (left panels) and aGVHD target organs (right panels) were subsequently harvested and homogenized. Total eGFP levels were then determined using an anti-eGFP ELISA. N=7 per treatment group. […] (E, F) B6D2 mice were transplanted as in (C, D) and their organs removed and homogenized on day +7 (E) or day +14 (F). Total IFN-y (left panels) and TNF (right panels) was then determined by ELISA. N=7 per treatment group.

CCR1 = target: T1, CCR1 (Homo sapiens, UniProt P32246); conditions: cited from earlier work
T1 sequence (P32246 1-355): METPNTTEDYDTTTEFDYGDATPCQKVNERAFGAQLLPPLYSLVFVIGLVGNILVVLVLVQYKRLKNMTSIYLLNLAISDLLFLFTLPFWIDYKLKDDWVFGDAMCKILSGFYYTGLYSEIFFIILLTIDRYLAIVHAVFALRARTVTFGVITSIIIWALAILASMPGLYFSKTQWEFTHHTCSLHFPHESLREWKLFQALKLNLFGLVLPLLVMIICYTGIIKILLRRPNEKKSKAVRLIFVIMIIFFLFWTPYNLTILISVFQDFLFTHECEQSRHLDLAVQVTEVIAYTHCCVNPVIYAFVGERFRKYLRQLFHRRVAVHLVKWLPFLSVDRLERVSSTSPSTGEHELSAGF

CCR7 [1] = target: T2, CCR7 (Homo sapiens, UniProt P32248); assay: HTS primary reporter assay, human CCR7; assay type: cell-based
T2 sequence (P32248 25-378): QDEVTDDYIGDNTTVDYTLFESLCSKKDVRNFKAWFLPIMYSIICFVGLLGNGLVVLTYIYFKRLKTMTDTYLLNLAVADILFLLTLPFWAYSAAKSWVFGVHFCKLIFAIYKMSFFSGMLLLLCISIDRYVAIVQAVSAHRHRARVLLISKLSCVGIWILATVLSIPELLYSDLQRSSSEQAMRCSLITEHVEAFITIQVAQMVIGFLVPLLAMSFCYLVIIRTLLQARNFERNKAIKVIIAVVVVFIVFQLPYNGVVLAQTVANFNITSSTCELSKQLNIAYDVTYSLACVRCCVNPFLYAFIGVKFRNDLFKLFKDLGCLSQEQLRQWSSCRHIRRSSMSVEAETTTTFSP

[2] = tested on: P815 murine mastocytoma cells; assay: P815 graft-versus-leukemia model with in vivo imaging
Procedure: B6D2 mice were lethally irradiated on transplant day −1. On day 0 recipients were administered 3×10^6 TCD B6 BM cells and 2.5×10^4 luciferase^+ P815 murine mastocytoma cells (H-2^d)+/−4×10^6 B6 Tcons. Donor Tcons were incubated ex vivo with DMSO vehicle or cosalane diluted in normal saline at 15 μg/ml. The cells were then mixed with untreated BM/tumor cells and administered immediately to recipient mice by tail vein injection. Mice were then serially imaged twice weekly following the intraperitoneal injection of luciferin. […] Recipient mortality was attributed to tumor versus aGVHD based on the tumor burden by imaging and clinical aGVHD scores at the time of death. Exposure time=4 seconds for all panels. N=5 per treatment group.
B6D2 mice were lethally irradiated on transplant day −1. On day 0 recipients were administered 3×10^6 TCD B6 BM cells and 2.5×10^4 luciferase^+ P815 murine mastocytoma cells. Some recipients also received 2×10^6 DMSO treated B6 Tcons or 4×10^6 cosalane treated B6 Tcons (15 μg/ml). Mice were then serially imaged twice weekly following the intraperitoneal injection of luciferin. […] Exposure time=4 seconds for all panels. The “mixed” cage on the far right contained one mouse each of the BM/P815 only, BM/P815 plus DMSO Tcons, and BM/P815 plus cosalane Tcons groups. N=6 per treatment group.
P815 graft-versus-leukemia model and in vivo imaging: Luciferase transfected P815 murine mastocytoma cells (H-2^d) were a kind gift from the laboratory of Dr. Jonathan Serody. P815 cells were cultured and then mixed with TCD bone marrow cells prior to transplantation. A tumor dose of 2.5×10^4 P815 cells was used for all experiments. Recipients were then serially imaged using an IVIS Kinetic Optical real-time imaging system to monitor for in vivo tumor growth twice weekly. For imaging, recipients were dosed with 3 mg of D-luciferin (Perkin Elmer) by intraperitoneal injection 10 minutes prior to the procedure. Mice were then anesthetized with isoflurane during image acquisition. Unless otherwise indicated an exposure time of 4 seconds was used for all images.
As a result, we evaluated cosalane's effects on GVL immunity using a well described P815 murine mastoma (H-2^d) leukemia model. Here, B6D2 mice were lethally irradiated and then administered 3×10^6 TCD B6 bone marrow cells containing 25,000 luciferase transfected P815 cells +/−4×10^6 B6 Tcons to drive a GVL response. One half of those mice receiving BM/Tumor plus Tcons were administered Tcons incubated with DMSO and the other one half received cosalane treated Tcons. Recipients were subsequently evaluated by serial in vivo imaging in order to monitor tumor growth in each treatment group. […]

CCR7 [3] = target: T2, CCR7; conditions: cited from earlier work
[4] = tested on: herpes simplex 1 and 2 and human cytomegalovirus; conditions: cited from earlier work
Murine CCR7 = target: T3, Murine CCR7 (Mus musculus, UniProt P47774); assay: HTS primary reporter assay, murine CCR7; assay type: cell-based
T3 sequence (P47774 25-378): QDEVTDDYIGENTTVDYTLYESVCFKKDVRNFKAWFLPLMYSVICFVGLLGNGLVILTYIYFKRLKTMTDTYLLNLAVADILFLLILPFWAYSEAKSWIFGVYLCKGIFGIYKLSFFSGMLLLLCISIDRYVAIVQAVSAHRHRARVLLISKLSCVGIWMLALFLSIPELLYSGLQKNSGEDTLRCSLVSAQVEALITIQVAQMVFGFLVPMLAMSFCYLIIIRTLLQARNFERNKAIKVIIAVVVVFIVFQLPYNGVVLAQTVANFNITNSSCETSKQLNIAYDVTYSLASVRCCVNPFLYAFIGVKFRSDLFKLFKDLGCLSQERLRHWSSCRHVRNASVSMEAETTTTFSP

[5] = tested on: CCR7-/- B6 into BALB/c aGVHD model; assay: aGVHD induced with CCR7-/- B6 Tcons into BALB/c
Procedure: (A, B) BALB/c mice were lethally irradiated on transplant day −1. On day 0 recipients were administered 5×10^6 TCD B6 BM cells +/−3×10^6 CCR7^−/− B6 Tcons. Donor Tcons were incubated ex vivo with DMSO vehicle or cosalane diluted in normal saline at 15 μg/ml. The cells were then mixed with untreated TCD B6 BM cells and administered immediately to recipient mice by tail vein injection. Mice were then followed for survival and scored for aGVHD. N=2 BM only. N=6 for all other treatment groups. […] (C, D) BALB/c mice were transplanted as in A, B. Donor CCR7^−/− B6 Tcons, however, were incubated ex vivo with DMSO vehicle or cosalane diluted in normal saline at 30 μg/ml. N=2 BM only. N=9 for all other treatment groups.
As a result, we repeated our CCR7^−/− B6 into BALB/c transplant but pre-incubated the donor Tcons with an identical cosalane strength of 30 μg/ml.

[6] = tested on: human PBMC into NSG xenogeneic aGVHD system; assay: Xenogeneic aGVHD, human PBMC into NSG mice, cells incubated ex vivo; assay type: in vivo, mouse; design: survival times: dose or concentration left out as unconfirmed
B6 into B6D2 aGVHD model [7] = tested on: B6 into B6D2 aGVHD model
Epstein Barr virus (EBV) = assay type: cell-based, human
[8] = cited from earlier work
Cytotoxicity (Table 1) = assay type: cell-based
Source text: Perhaps the most important goal of HSCT research is to separate the beneficial anti-tumor effects mediated by donor T cells from the deleterious GVHD responses that they are also capable of producing. […] Unfortunately, there were no drugs or therapeutic antibodies available for clinical use. As a result, we pursued our high throughput screening (HTS) effort to identify novel small molecule antagonists with anti-CCR7 activity. The initial drug discovery process identified cosalane as a CCR7 antagonist. A substantial amount of work has subsequently been done with the compound in an effort to prevent acute graft-versus-host disease in mouse bone marrow transplant models.

B6 into B6D2 aGVHD model [9] = assay: aGVHD, B6 into B6D2 transplant, cosalane dosed systemically; assay type: in vivo, mouse
Procedure: Transplantation Procedures: Recipient mice were irradiated on transplant day −1. Recipients were then administered T cell depleted (TCD) bone marrow cells +/−CD25^− column-purified conventional T cells (Tcons) to induce aGVHD as previously described (Wysocki et al., J. Immunol. 173:845 (2004); Carlson et al., Blood 113:1365 (2009)). Tcons consisted of CD4^+ and CD8^+ T cells in a 1:1 ratio. For ex-vivo cosalane incubations, cell populations were suspended in serum/protein free injectable saline unless otherwise indicated. […] The cells were then administered immediately to recipients by tail vein injection.

donor Tcon accumulation = assay: Organ eGFP quantification (donor Tcon accumulation, anti-eGFP ELISA); assay type: in vivo, mouse
[10] = 4×10^6 Tcons incubated 15 μg/ml
[11] = 4×10^6 cosalane treated Tcons vs 2×10^6 DMSO Tcons
[12] = BM plus Tcons incubated 15 μg/ml
[13] = Tcons incubated 10 μg/ml (13 μM) in saline alone, one hour
[14] = day +14, Tcons incubated 15 μg/ml

CC(C)CCC[C@@H](C)[C@H]1CC[C@H]2[C@@H]3CC[C@H]4C[C@@H](CCC=C(c5cc(Cl)c(O)c(C(=O)O)c5)c5cc(Cl)c(O)c(C(=O)O)c5)CC[C@]4(C)[C@H]3CC[C@]12C [Cosalane, cosalane]
TNF and IFN-γ levels in the host colon (TNF and IFN-γ): significantly reduced | CCR1 dependent chemotaxis in response to CCL3 and CCL4 (CCR1): inactive | CCR1 dependent chemotaxis in response to CCL5 (CCR1): blocked | IC50 (CCR7 [1]; ligand CCL19, read-out: Human CCR7 IC50 To CCL19): 0.207 µM | IC50 (CCR7 [1]; ligand CCL21, read-out: Human CCR7 IC50 To CCL21): 2.66 µM | overall survival times [2, 10]: longest overall survival times | tumor growth [2, 10]: substantial suppression of tumor growth | mice died of aGVHD [2, 11]: 3/6 | mice succumbed to malignancy [2, 11]: none succumbed to malignancy | activity against CCL19 versus CCL21 (CCR7 [3]): approximately 10 fold | viral cytopathic effect induced by herpes viruses [4]: block viral cytopathic effect | IC50 (Murine CCR7; ligand CCL19, read-out: Murine CCR7 IC50 To CCL19): 0.193 µM | IC50 (Murine CCR7; ligand CCL21, read-out: Murine CCR7 IC50 To CCL21): 1.98 µM | aGVHD with CCR7-/- donor Tcons ([5]; Tcons incubated 15 μg/ml): completely inactive | aGVHD scores with CCR7-/- donor Tcons ([5]; Tcons incubated 30 μg/ml): trend for lower aGVHD scores | survival times with CCR7-/- donor Tcons ([5]; Tcons incubated 30 μg/ml): longer survival times | survival ([6]; human PBMCs incubated 35 μg/ml): most recipients surviving to the end of the study period | survival times ([6]; human PBMCs incubated with cosalane): prolonged survival times | recipients surviving to the end of the study period, combined treatment (B6 into B6D2 aGVHD model [7]; BM cells and Tcons incubated 15 μg/ml): 100% | delayed bone marrow failure (B6 into B6D2 aGVHD model [7]; [12]): no clinical signs of delayed bone marrow failure | group surviving to the end of the study observation period (B6 into B6D2 aGVHD model [7]; [12]): 90% | aGVHD scores (B6 into B6D2 aGVHD model [7]; [13]): reduced aGVHD scores | median survival times (B6 into B6D2 aGVHD model [7]; [13]): improved median survival times | aGVHD (B6 into B6D2 aGVHD model [7]; Tcons incubated 10 μg/ml in saline plus 1% albumin): developed severe aGVHD similar to DMSO controls | survival, isolated treatment of donor Tcons (B6 into B6D2 aGVHD model [7]; Tcons incubated 15 μg/ml, BM DMSO): 100% | transplant outcomes, dose dependence (B6 into B6D2 aGVHD model [7]; Tcons incubated 10, 20 or 30 μg/ml): improved transplant outcomes with increasing dosages | aGVHD attenuation, whole stem product treated (B6 into B6D2 aGVHD model [7]; mouse, in vivo): attenuate aGVHD at least as well as what was observed previously with the isolated treatment of Tcons alone | outcomes, isolated treatment of donor BM cells alone (B6 into B6D2 aGVHD model [7]; mouse, in vivo): did not significantly improve outcomes | EBV infection, isolated pretreatment of target cells (Epstein Barr virus (EBV); 20 μg/ml pretreatment one hour, washed): reduced viral infection to a significant degree | EBV infectivity, compound present throughout (Epstein Barr virus (EBV); 20 μg/ml, Raji cells, 48 hours): significantly limited EBV infectivity | tissue accumulation ([8]; administered intravenously): propensity to accumulate within the liver | oral bioavailability ([8]; in vivo, po): very poor oral bioavailability | Cytotoxicity (Cytotoxicity (Table 1)): >50 (non-toxic) μM | aGVHD (survival and scores) with systemic dosing (B6 into B6D2 aGVHD model [9]; 10 mg/kg intravenous, day 0, +3, +6): did not attenuate aGVHD and may have actually worsened clinical outcomes | dosages much better tolerated by irradiated recipients (B6 into B6D2 aGVHD model [9]; irradiated recipients, 10 mg/kg excessively high): 0.5 to 2 mg/kg | donor Tcon numbers within the spleen, ILN, and MLN (donor Tcon accumulation; 36 hours after transplant, Tcons incubated 15 μg/ml): significant reduction in donor Tcon numbers | donor Tcon accumulation in secondary lymphoid tissues and aGVHD target organs (donor Tcon accumulation; day +7, Tcons incubated 15 μg/ml): no differences in donor Tcon accumulation | donor Tcon accumulation within host lymphoid sites (donor Tcon accumulation; [14]): no differences in donor Tcon accumulation | donor Tcons within the colon and liver (donor Tcon accumulation; [14]): significant reduction in donor Tcons
